Active and inactive are the calls of the source. The rule behind the calls is not given here.
Tested on: rodent carcinogenicity bioassays, tumor incidence
Test: CCRIS carcinogenicity studies
Details: Route: ORAL
Outline: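 NCI-built, expert-reviewed records of carcinogenicity and related test outcomes (mutagenicity, tumor promotion/inhibition) compiled from published and report sources, historical span 1985-2011, not updated.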

Cc1cccc(Nc2cc(Cl)nc(SCC(=O)O)n2)c1C
carcinogen call (Species: MOUSE, Strain/Sex: STRAIN-CS/MALE, Dose: 0.1% (W/W) IN DIET FOR 6 MO THEN 0.05% IN DIET FOR 8.5 MO, Tumor Site: Type of Lesion: LIVER: HEPATOCELLULAR CARCINOMA): active; positive | carcinogen call (Species: RAT, Strain/Sex: CD-1/MALE, Dose: 0, 50 PPM IN DIET FOR 43 WK FOLLOWED BY 25 PPM IN FEED FOR 61 WK (STUDY DURATION: 2 YR), Tumor Site: Type of Lesion: LIVER: ADENOMA, ADENOMA OR CARCINOMA, TESTES: LEYDIG CELL ADENOMA, PANCREAS: ACINAR CELL ADENOMA OR CARCINOMA, Tumor Site: Type of Lesion: LIVER: ADENOMA, ADENOMA OR CARCINOMA, TESTES: LEYDIG CELL ADENOMA, PANCREAS: ACINAR CELL ADENOMA OR CARCINOMA): active; positive | carcinogen call (Species: RAT, Strain/Sex: F344/MALE, Dose: 0, 0.05, 0.10% IN DIET STARTED AT 2 MO OF AGE FOR STUDY DURATION (STUDY DURATION: 22 WK), Dose: 0, 0.05, 0.10% IN DIET STARTED AT 2 MO OF AGE FOR STUDY DURATION (STUDY DURATION: 22 WK), Tumor Site: Type of Lesion: LIVER: HEPATOCELLULAR CARCINOMA, HEPATOCELLULAR ADENOMA): active; positive | carcinogen call (Species: RAT, Strain/Sex: F344/MALE, Dose: 0.00, 0.05, 0.10% IN DIET STARTED AT 15 MO OF AGE FOR STUDY DURATION (STUDY DURATION: 22 WK), Dose: 0.00, 0.05, 0.10% IN DIET STARTED AT 15 MO OF AGE FOR STUDY DURATION (STUDY DURATION: 22 WK), Tumor Site: Type of Lesion: LIVER: HEPATOCELLULAR CARCINOMA, HEPATOCELLULAR ADENOMA): active; positive | carcinogen call (Species: RAT, Strain/Sex: F344/MALE, Dose: 0, 0.1% IN DIET FOR 22 WK (STUDY DURATION: 22 WK)): inactive; negative | carcinogen call (Species: RAT, Strain/Sex: F344/MALE, Dose: 0, 0.1% IN DIET FOR 22 WK FOLLOWED BY BASAL DIET UNTIL TERMINATION AT 37, 52, OR 104 WK, RESPECTIVELY (STUDY DURATION: 3): inactive; negative | carcinogen call (Species: RAT, Strain/Sex: F344/MALE, Dose: 0, 0.1% IN DIET FOR 37 WK (STUDY DURATION: 37 WK), Tumor Site: Type of Lesion: LIVER: HEPATOCELLULAR ADENOMA): active; positive | carcinogen call (Species: RAT, Strain/Sex: F344/MALE, Dose: 0, 0.1% IN DIET FOR 37 WK FOLLOWED BY BASAL DIET UNTIL TERMINATION AT 52 OR 104 WK (STUDY DURATION: 52 OR 104 WK)): inactive; negative | carcinogen call (Species: RAT, Strain/Sex: F344/MALE, Dose: 0, 0.1% IN DIET FOR 52 WK (STUDY DURATION: 52 WK), Tumor Site: Type of Lesion: LIVER: HEPATOCELLULAR ADENOMA, HEPATOCELLULAR CARCINOMA): active; positive | carcinogen call (Species: RAT, Strain/Sex: F344/MALE, Dose: 0, 0.1% IN DIET FOR 52 WK FOLLOWED BY BASAL DIET UNTIL TERMINATION AT 104 WK (STUDY DURATION: 104 WK), Tumor Site: Type of Lesion: LIVER: HEPATOCELLULAR ADENOMA OR CARCINOMA): active; positive | carcinogen call (Species: RAT, Strain/Sex: F344/MALE, Dose: 0, 0.1% IN DIET FOR 78 WK (STUDY DURATION: 78 WK), Tumor Site: Type of Lesion: LIVER: NEOPLASM): active; positive | carcinogen call (Species: RAT, Strain/Sex: F344/MALE, Dose: 0.1% (W/W) IN DIET FOR 16 MO, Tumor Site: Type of Lesion: LIVER: HEPATOCELLULAR CARCINOMA): active; positive | carcinogen call (Species: RAT, Strain/Sex: F344/MALE, Dose: 0.1% IN DIET FOR 11 WK FOLLOWED BY CONTROL DIET FOR DURATION OF STUDY (STUDY DURATION: 56 WK)): inactive; negative | carcinogen call (Species: RAT, Strain/Sex: F344/MALE, Dose: 0.1% IN DIET FOR 43 WK (STUDY DURATION: 56 WK), Tumor Site: Type of Lesion: LIVER: HEPATOCELLULAR CARCINOMA): active; positive | carcinogen call (Species: RAT, Strain/Sex: F344/MALE, Dose: 0.1% IN DIET FOR 54 WK (STUDY DURATION: 56 WK), Tumor Site: Type of Lesion: LIVER: HEPATOCELLULAR CARCINOMA): active; positive | carcinogen call (Species: RAT, Strain/Sex: F344/MALE, Dose: 0.2% (W/W) IN DIET FOR 65 WK, Tumor Site: Type of Lesion: LIVER: HEPATOCELLULAR CARCINOMA): active; positive

Clc1ccc2c(c1)C(c1ccccc1)=NCc1nncn1-2
carcinogen call (Species: MOUSE, Strain/Sex: B6C3F1/FEMALE, Dose: 0, 0.8, 3, 10 MG/KG IN DIET FOR 2 YR (STUDY DURATION: 2 YR), Dose: 0, 0.8, 3, 10 MG/KG IN DIET FOR 2 YR (STUDY DURATION: 2 YR)): inactive; negative | carcinogen call (Species: MOUSE, Strain/Sex: B6C3F1/FEMALE, Dose: 0, 0.8, 3, 10 MG/KG/D IN DIET FOR 2 YR (STUDY DURATION: 2 YR), Dose: 0, 0.8, 3, 10 MG/KG/D IN DIET FOR 2 YR (STUDY DURATION: 2 YR)): inactive; negative | carcinogen call (Species: MOUSE, Strain/Sex: B6C3F1/MALE, Dose: 0, 0.8, 3, 10 MG/KG IN DIET FOR 2 YR (STUDY DURATION: 2 YR), Dose: 0, 0.8, 3, 10 MG/KG IN DIET FOR 2 YR (STUDY DURATION: 2 YR)): inactive; negative | carcinogen call (Species: MOUSE, Strain/Sex: B6C3F1/MALE, Dose: 0, 0.8, 3, 10 MG/KG/D IN DIET FOR 2 YR (STUDY DURATION: 2 YR), Dose: 0, 0.8, 3, 10 MG/KG/D IN DIET FOR 2 YR (STUDY DURATION: 2 YR)): inactive; negative | carcinogen call (Species: RAT, Strain/Sex: SPRAGUE-DAWLEY/FEMALE, Dose: 0, 0.5, 2, 10 MG/KG IN DIET FOR 2 YR (STUDY DURATION: 2 YR), Dose: 0, 0.5, 2, 10 MG/KG IN DIET FOR 2 YR (STUDY DURATION: 2 YR)): inactive; negative | carcinogen call (Species: RAT, Strain/Sex: SPRAGUE-DAWLEY/MALE, Dose: 0, 0.5, 2, 10 MG/KG IN DIET FOR 2 YR (STUDY DURATION: 2 YR), Dose: 0, 0.5, 2, 10 MG/KG IN DIET FOR 2 YR (STUDY DURATION: 2 YR)): inactive; negative | carcinogen call (Species: RAT, Strain/Sex: STRAIN-CD/FEMALE, Dose: 0, 0.5, 2, 10 MG/KG/D IN DIET FOR 2 YR (STUDY DURATION: 2 YR), Dose: 0, 0.5, 2, 10 MG/KG/D IN DIET FOR 2 YR (STUDY DURATION: 2 YR)): inactive; negative | carcinogen call (Species: RAT, Strain/Sex: STRAIN-CD/MALE, Dose: 0, 0.5, 2, 10 MG/KG/D IN DIET FOR 2 YR (STUDY DURATION: 2 YR), Dose: 0, 0.5, 2, 10 MG/KG/D IN DIET FOR 2 YR (STUDY DURATION: 2 YR)): inactive; negative

NC(=O)/C(=C\c1ccc([N+](=O)[O-])o1)c1ccco1
carcinogen call (Species: HAMSTER, Strain/Sex: SYRIAN/MALE, Dose: 0.25% IN DIET, Tumor Site: Type of Lesion: FORESTOMACH: PAPILLOMA, SQUAMOUS CELL CARCINOMA, BILE DUCT: ADENOMA): active; positive | carcinogen call (Species: MOUSE, Strain/Sex: CD-1/MALE,FEMALE, Dose: 0.4% IN DIET FOR 18 MO, Tumor Site: Type of Lesion: FORESTOMACH: PAPILLOMA, SQUAMOUS CELL CARCINOMA): active; positive | carcinogen call (Species: MOUSE, Strain/Sex: DDY/MALE, Dose: 0.25% IN DIET FOR 308 DAYS, Tumor Site: Type of Lesion: FORESTOMACH: SQUAMOUS CELL CARCINOMA): active; positive | carcinogen call (Species: MOUSE, Strain/Sex: ICR/MALE,FEMALE, Dose: 0.08, 0.4% IN DIET FOR 440 DAYS, Tumor Site: Type of Lesion: FORESTOMACH: PAPILLOMA, SQUAMOUS CELL CARCINOMA): active; positive | carcinogen call (Species: RAT, Strain/Sex: WISTAR/FEMALE, Dose: 0.08, 0.4% IN DIET FOR 18 MO, Tumor Site: Type of Lesion: MAMMARY GLAND: ADENOCARCINOMA, FORESTOMACH: PAPILLOMA): active; positive | carcinogen call (Species: RAT, Strain/Sex: WISTAR/MALE, Dose: 0.4% IN DIET FOR 18 MO, Tumor Site: Type of Lesion: FORESTOMACH: PAPILLOMA): active; positive
